Some test systems named below: HT29 colon; TK-10 renal; SW-620 colon; A498 renal; HOP-92 NSCLC; NCI-H522 lung; NCI-H226 lung; SK-MEL-28 melanoma; NCI-H23 lung; DU-145 prostate.
Common to all, as to assay: NCI anticancer screen, dose series, 48 h

SMILES strings stand for the structures. “And” between values parts separate entries of the source, which are not always exact repeats. Equal entries are not always repeated.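 These data come from cells grown in 96-well plates and exposed to compound for 48 hours at five concentrations. GI50 = concentration required for 50% inhibition of growth. TGI: total growth inhibition.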 Some results are limits rather than exact numbers.

In the case of `NC1=NCCN1CC(=O)O`, the GI50 with HT29 colon, in the experiment on TK-10 renal, with SW-620 colon, in the experiment with A498 renal, in the experiment on HOP-92 NSCLC and in the experiment on NCI-H226 lung was greater than 10000 µM each time. Further, the GI50 in the experiment on SK-MEL-28 melanoma, in the experiment on NCI-H23 lung and in the experiment on DU-145 prostate was greater than 10000 µM in each case. In addition, the TGI in the experiment with HT29 colon, in the experiment on TK-10 renal, with SW-620 colon, in the experiment on A498 renal, with HOP-92 NSCLC and in the experiment on NCI-H522 lung was greater than 10000 µM in each case. In addition, the TGI in the experiment on NCI-H226 lung, in the experiment with SK-MEL-28 melanoma, in the experiment with NCI-H23 lung and with DU-145 prostate was greater than 10000 µM in each case.
Turning to `C/C(=C\COc1c2c(cc3c1CCO3)OC1(C=C2)OC(CC/C(C)=C/COc2c3ccoc3cc3oc(=O)ccc23)C(C)(C)O1)CCC(O)C(C)(C)O` (stereo not drawn), the GI50 was 22.4 µM in the experiment with HT29 colon; 78.8 µM with TK-10 renal; 62.3 µM in the experiment on SW-620 colon; 32.8 µM in the experiment on A498 renal; 7.56 µM in the experiment with HOP-92 NSCLC; 24.3 µM in the experiment with NCI-H522 lung. Further, the GI50 is 58.7 µM in the experiment with NCI-H226 lung, 16.9 µM in the experiment with SK-MEL-28 melanoma, 33.7 µM with NCI-H23 lung and greater than 100 µM in the experiment on DU-145 prostate. The TGI with HT29 colon, in the experiment on TK-10 renal, in the experiment with SW-620 colon, in the experiment with A498 renal, in the experiment on HOP-92 NSCLC and with NCI-H522 lung was greater than 100 µM each time. For the same compound, the TGI in the experiment on NCI-H226 lung, in the experiment on SK-MEL-28 melanoma, in the experiment on NCI-H23 lung and in the experiment with DU-145 prostate was greater than 100 µM throughout.
Regarding `O=C(NCc1ccncc1)C12CC3CC(C1)CC(c1ccc(Cl)cc1)(C3)C2`, the GI50 with HT29 colon was 11.9 µM; in the experiment with TK-10 renal it was 15.3 µM; with SW-620 colon, 13.7 µM; in the experiment with A498 renal it was 7.85 µM; in the experiment with HOP-92 NSCLC it was 12 µM; in the experiment with NCI-H522 lung, 13.5 µM. In addition, the GI50 in the experiment on NCI-H226 lung is 12 µM; in the experiment with SK-MEL-28 melanoma, 12.7 µM; in the experiment with NCI-H23 lung, 14.4 µM; in the experiment on DU-145 prostate it was 14.8 µM. The TGI in the experiment with HT29 colon came out at 25.4 µM; in the experiment with TK-10 renal it was 29.5 µM; in the experiment on SW-620 colon, 28.5 µM; with A498 renal, 20.8 µM; in the experiment on HOP-92 NSCLC, 25.2 µM; in the experiment on NCI-H522 lung, 28.8 µM. For the same compound, the TGI was determined as 31.1 µM in the experiment on NCI-H226 lung, 25.5 µM in the experiment with SK-MEL-28 melanoma, 32.7 µM with NCI-H23 lung and 28.6 µM in the experiment on DU-145 prostate.
Consider `O=C(NO)c1ccc(Cn2c(=O)n(-c3ccccc3F)c(=O)c3ccccc32)cc1`, for which the GI50 in the experiment on HT29 colon is 2.02 µM; in the experiment on TK-10 renal, 1.43 µM; with SW-620 colon, 1.59 µM; with A498 renal it was 1.02 µM; with HOP-92 NSCLC it was 1.77 µM; in the experiment on NCI-H522 lung, 0.542 µM. Moreover, the GI50 in the experiment on NCI-H226 lung is 1.43 µM; in the experiment with SK-MEL-28 melanoma, 1.77 µM; in the experiment with DU-145 prostate, 2.09 µM. Also, the TGI came out at 10.5 µM with HT29 colon; 5.16 µM with TK-10 renal; 4.37 µM in the experiment with SW-620 colon; 2.57 µM with A498 renal; 4.75 µM in the experiment with HOP-92 NSCLC; 2.05 µM in the experiment with NCI-H522 lung. Further, the TGI in the experiment on NCI-H226 lung was 3.27 µM; with SK-MEL-28 melanoma, 4.25 µM; in the experiment with DU-145 prostate, greater than 100 µM.
Take `CCOC(=O)C(C)(C)C(O)C(C)C` (stereo not drawn): the TGI in the experiment with HT29 colon, in the experiment with TK-10 renal, in the experiment on SW-620 colon, with A498 renal, with HOP-92 NSCLC and in the experiment with NCI-H522 lung was greater than 100 µM in each case. Further, the TGI in the experiment with SK-MEL-28 melanoma, in the experiment on NCI-H23 lung and with DU-145 prostate was greater than 100 µM in each case.
On to `Cc1cc2c(c3oc(C4(C)OC4C4OC4C)cc(=O)c13)C(=O)c1c(O)c(C3CC(C)(N(C)C)C(O)C(C)O3)cc(C3CC(N(C)C)C(O)C(C)O3)c1C2=O` (stereo not drawn), for which the GI50 in the experiment on HT29 colon was 0.0025 µM; with TK-10 renal it was 0.00027 µM; with SW-620 colon it was 4.89e-05 µM and 0.000111 µM; with A498 renal, 0.00057 µM; in the experiment with HOP-92 NSCLC, 0.000258 µM. Also, the TGI was 0.0427 µM and 0.131 µM and 0.0337 µM with HT29 colon; 0.0116 µM and 0.0501 µM in the experiment on TK-10 renal; 0.00114 µM with A498 renal; 0.000537 µM and 0.000944 µM in the experiment on NCI-H226 lung; 0.00277 µM and 0.000596 µM in the experiment with SK-MEL-28 melanoma; 0.000138 µM and 0.000556 µM with DU-145 prostate.
As for `O=C(CCC(C(=O)c1ccccc1)c1ccccc1)c1ccccc1` (stereo not drawn), the GI50 was 4.21 µM with HT29 colon; 38.6 µM in the experiment with TK-10 renal; 3.75 µM with SW-620 colon; 1.44 µM in the experiment on A498 renal; 3.4 µM with HOP-92 NSCLC; 2.64 µM in the experiment with NCI-H522 lung. The GI50 with SK-MEL-28 melanoma was 55.7 µM; in the experiment with NCI-H23 lung, 10.8 µM; with DU-145 prostate, 30.1 µM. The TGI is greater than 100 µM with HT29 colon; greater than 100 µM with TK-10 renal; greater than 100 µM in the experiment with SW-620 colon; 58.1 µM in the experiment with A498 renal; 72.2 µM in the experiment with HOP-92 NSCLC; 8.98 µM in the experiment on NCI-H522 lung. Moreover, the TGI with SK-MEL-28 melanoma, in the experiment on NCI-H23 lung and in the experiment on DU-145 prostate was greater than 100 µM throughout.
With `CCCCN(CCCC)CCCn1c(=O)c2c3ccccc3n(C)c2n2nnc(-c3ccccc3)c12`, the GI50 in the experiment on HT29 colon was 7.72 µM; in the experiment on TK-10 renal, 1.9 µM; with SW-620 colon, 26.5 µM; in the experiment with A498 renal, 42.7 µM; with HOP-92 NSCLC, 18.5 µM; in the experiment on NCI-H226 lung it was 57 µM. Moreover, the GI50 in the experiment with SK-MEL-28 melanoma was greater than 100 µM; with NCI-H23 lung it was 13 µM; in the experiment with DU-145 prostate it was 47.6 µM. Further, the TGI with HT29 colon is 36.3 µM; in the experiment with TK-10 renal, 22.4 µM; with SW-620 colon it was greater than 100 µM; in the experiment with A498 renal it was greater than 100 µM; with HOP-92 NSCLC, 44.7 µM; in the experiment with NCI-H226 lung, greater than 100 µM. The TGI was greater than 100 µM in the experiment on SK-MEL-28 melanoma, 62.6 µM in the experiment on NCI-H23 lung and greater than 100 µM with DU-145 prostate.

Values taken from PubChem BioAssay (NCI).
